Here are results for 6 compounds from patent US20250186430A1, “THERAPY OF INTEROCEPTION DISORDERS WITH CGRP RECEPTOR ANTAGONISTS” (priority 2022, published 2025).

SMILES strings stand for the structures.

In data set [1] the test system is rats injected with Yoshida hepatoma. The experiment in a line: Yoshida hepatoma model of malaise due to tumor cachexia. The format is in vivo. Particulars: gepant 10 mg/kg orally, daily, starting two days before tumor injection. The method, then:
As additional models of malaise due to interoceptive information, we have adopted those of tumor cachexia and sepsis.
FIG. 8. Effects of rimegepant, ubrogepant, atogepant and zavegepant (10 mg/kg orally, daily, starting two days before tumor injection) on body weight loss, muscle mass and food consumption/anorexia in rats injected with Yoshida hepatoma, as classic model of malaise due to tumor cachexia. * p<0.05, ** p<0.01, *** p<0.001. **** p<0.0001 vs Hepatoma, ANOVA and Tukeys post hoc test.

Data set [2] has as its system rats treated with carbon tetrachloride. The experiment in a line: carbon tetrachloride model of malaise due to hepatopathy. The format is in vivo. The settings on record: gepant 10 mg/kg orally, daily, starting two days before carbon tetrachloride. The protocol:
Further, we have tested the gepants in a model of hepatopathy, a condition that typically prompts asthenia, weight loss and anhedonia.
FIG. 4. Effects of rimegepant, ubrogepant, atogepant and zavegepant (10 mg/kg orally, daily, starting two days before carbon tetrachloride) on body weight loss and sweet water consumption in rats treated with carbon tetrachloride as a model of malaise due to hepatitis/hepatopathy. * p<0.05, ** p<0.01, *** p<0.001 vs Hepatitis, ANOVA and Tukeys post hoc test.

Data set [3] concerns rats injected with cerulein. The experiment in a line: cerulein model of pancreatitis. The format is in vivo. The settings on record: gepant 10 mg/kg orally, daily, starting two days before cerulein treatment. The method, then:
FIG. 5. Effects of rimegepant, ubrogepant, atogepant and zavegepant (10 mg/kg orally, daily, starting two days before cerulein treatment) on body weight loss and spontaneous motility in rats injected with cerulein as an experimental model of pancreatitis. * p<0.05, ** p<0.01, *** p<0.001 vs Pancreatitis, ANOVA and Tukeys post hoc test.

The subject of data set [4] is rats subjected to laparotomy and gut manipulation. The experiment in a line: laparotomy and gut manipulation model of malaise due to abdominal surgery. The format is in vivo. The settings on record: gepant 10 mg/kg orally, daily, starting two days before surgery. The method, then:
FIG. 3. Effects of rimegepant, ubrogepant, atogepant and zavegepant (10 mg/kg orally, daily, starting two days before surgery) on body weight loss and food consumption/anorexia in rats subjected to laparotomy and gut manipulation as an experimental model of malaise due to abdominal surgery. * p<0.05, ** p<0.01, *** p<0.001 vs Laparotomy, ANOVA and Tukeys post hoc test.

In data set [5] the test system is rats treated with a diet containing 0.75% adenine. The experiment in a line: 0.75% adenine diet model of renal insufficiency. The format is in vivo. Particulars: gepant 10 mg/kg orally, daily, starting two days before nephrotoxic diet. The protocol: Further, we have tested the gepants in rats treated with a diet containing 0.75% adenine as an experimental model of renal insufficiency.
FIG. 6. Effects of rimegepant, ubrogepant, atogepant and zavegepant (10 mg/kg orally, daily, starting two days before exposure to the nephrotoxic diet) on body weight loss and food consumption/anorexia in rats exposed to a diet containing 0.75% adenine as an experimental model of renal insufficiency. *p<0.05, ** p<0.01, *** p<0.001 vs Kidney Failure, ANOVA and Tukeys post hoc test.

Data set [6] deals with rats injected intraperitoneally with lipopolysaccharides from Salmonella Typhimurium. Briefly: lipopolysaccharide model of malaise due to sepsis/systemic immune activation. The settings on record: gepant 10 mg/kg orally, daily, starting two days before lipopolysaccharides injection. The format is in vivo. The method, then:
FIG. 9. Effects of rimegepant, ubrogepant, atogepant and zavegepant (10 mg/kg orally, daily, starting two days before lipopolysaccharides injection) on body weight loss and food consumption/anorexia in rats injected intraperitoneally with lipopolysaccharides from Salmonella Typhimurium as a classic model of malaise due to sepsis/systemic immune activation. * p<0.05, ** p<0.01, vs Sepsis, ANOVA and Tukeys post hoc test.

Data set [7] relates to mice sensitized and re-challenged with ovalbumin. Briefly: ovalbumin model of asthma or chronic obstructive pulmonary disease. The format is in vivo. The settings on record: gepant 10 mg/kg orally, daily, starting two days before antigen rechallenge. The method, then:
FIG. 7. Effects of rimegepant, ubrogepant, atogepant and zavegepant (10 mg/kg orally, daily, starting two days before antigen rechallenge) on spontaneous motility, body weight loss and sweet water ingestion of mice sensitized and re-challenged with ovalbumin as a model of asthma or chronic obstructive pulmonary disease. * p<0.05, ** p<0.01, *** p<0.001 vs […], ANOVA and Tukeys post hoc test.

In data set [8] the test system is mice with chronic arthritis due to injection of Freund's adjuvant. Briefly: chronic arthritis (Freund's adjuvant) model of malaise due to chronic pain. The settings on record: gepant 10 mg/kg orally, daily, starting two days before arthritis induction. The format is in vivo. The method, then:
FIG. 2. Effects of rimegepant, ubrogepant, atogepant and zavegepant (10 mg/kg orally, daily, starting two days before arthritis induction) on food consumption/anorexia, weight loss and spontaneous motility in mice with chronic arthritis due to injection of Freund's adjuvant as an experimental model of malaise due to chronic pain. * p<0.05, ** p<0.01, *** p<0.001 vs Arthritis, ANOVA and Tukeys post hoc test.

For data set [9], the system named is rats exposed to the chemotherapeutic drug cisplatin. The experiment in a line: cisplatin model of malaise due to antineoplastic chemotherapy. The format is in vivo. Particulars: cisplatin 6 mg/kg intraperitoneal, gepant 10 mg/kg orally, daily, starting two days before cisplatin. The protocol: FIG. 1. Effect of rimegepant, ubrogepant, atogepant and zavegepant (10 mg/kg orally, daily, starting two days before cisplatin) on food consumption/anorexia, weight loss and weight body recovery in rats exposed to cisplatin (6 mg/kg, intraperitoneal), as an experimental model of malaise due to antineoplastic chemotherapy. * p<0.05, ** p<0.01, *** p<0.001, vs control, ANOVA and Tukeys post hoc test.

The conditions of data set [10]: background art; cited from earlier work.
The conditions of data set [11]: background art; cited from earlier work. This is another data set of the same source.

Take `Cc1cc(C[C@@H](NC(=O)N2CCC(c3cc4ccccc4[nH]c3=O)CC2)C(=O)N2CCN(C3CCN(C)CC3)CC2)cc2cn[nH]c12` [zavegepant]: in data set [1], the “loss of muscle mass” value was “counteracting”, the “reduction of food consumption/anorexia” value was “counteracting” and the weight loss result was “reducing”. In [2], the “sweet water consumption (index of motivational behavior and reduced anhedonia)” value is on record as “triggers an increase”; the weight loss result is recorded as “reduces”. For the same compound, in [3], the “reduction in spontaneous motility” value is reported as “prevents” and the weight loss result is “prevents”. Besides, in data set [4], the food aversion/anorexia entry is “in part” and the weight loss entry was “completely prevents”. Besides, in data set [5], the “decrease of food consumption/anorexia” value was “reduces” and the weight loss entry is on record as “reduces”. In [6], the “decrease of food consumption/anorexia” value is “reduces” and the weight loss result is given as “reduces”. In data set [7], the “decrease of sweet water consumption” value was “reduces”, the “spontaneous motility (parameter of malaise)” value was “reduces” and the weight loss result is given as “reduces”. Further, in data set [8], the food aversion/anorexia entry is “reduces”, the spontaneous motility entry is reported as “increases” and the weight loss result is “reduces”. In [9], the body weight loss entry is reported as “reduces”, the food aversion/anorexia entry was “reduces” and the weight body recovery entry is “accelerates”. Moreover, the hepatotoxicity entry in data set [10] was “non-hepatotoxic”.

Take `NCCCC[C@H](NC(=O)[C@@H](Cc1cc(Br)c(O)c(Br)c1)NC(=O)N1CCC(N2Cc3ccccc3NC2=O)CC1)C(=O)N1CCN(c2ccncc2)CC1` [olcegepant]: the hepatotoxicity result in data set [10] was “occurrence of hepatotoxicity”. The “efficacy as anti-migraine drugs” value in data set [11] is “proved efficacious”.

Consider `N[C@@H]1c2cccnc2[C@H](OC(=O)N2CCC(n3c(=O)[nH]c4ncccc43)CC2)CC[C@H]1c1cccc(F)c1F` [rimegepant], for which, in data set [1], the “loss of muscle mass” value is “counteracting”, the “reduction of food consumption/anorexia” value is listed as “counteracting” and the weight loss entry is on record as “reducing”. In addition, in data set [2], the “sweet water consumption (index of motivational behavior and reduced anhedonia)” value is on record as “triggers an increase”; the weight loss result is listed as “reduces”. For the same compound, in [3], the “reduction in spontaneous motility” value is recorded as “prevents” and the weight loss result is “prevents”. Moreover, in data set [4], the food aversion/anorexia entry was “in part” and the weight loss entry is “completely prevents”. In addition, in [5], the “decrease of food consumption/anorexia” value is “reduces” and the weight loss result is “reduces”. Also, in [6], the “decrease of food consumption/anorexia” value is “reduces” and the weight loss result is listed as “reduces”. For the same compound, in [7], the “decrease of sweet water consumption” value is given as “reduces”, the “spontaneous motility (parameter of malaise)” value is listed as “reduces” and the weight loss entry was “reduces”. In data set [8], the food aversion/anorexia entry is given as “reduces”, the spontaneous motility result is listed as “increases” and the weight loss result is recorded as “reduces”. Also, in [9], the body weight loss entry is on record as “reduces”, the food aversion/anorexia entry is on record as “reduces” and the weight body recovery entry was “accelerates”. Also, the hepatotoxicity result in data set [10] was “non-hepatotoxic”.

Take `O=C(N[C@@H]1CC[C@@H](c2cccc(F)c2F)CN(CC(F)(F)F)C1=O)N1CCC(n2c(=O)[nH]c3ncccc32)CC1` [telcagepant]: in [10], the hepatotoxicity entry was “occurrence of hepatotoxicity”. Further, the “efficacy as anti-migraine drugs” value in data set [11] was “proved efficacious”.

As to `C[C@@H]1[C@H](c2ccccc2)C[C@H](NC(=O)c2cnc3c(c2)C[C@@]2(C3)C(=O)Nc3ncccc32)C(=O)N1CC(F)(F)F` [ubrogepant], in data set [1], the “loss of muscle mass” value is “counteracting”, the “reduction of food consumption/anorexia” value is “counteracting” and the weight loss result is given as “reducing”. Besides, in data set [2], the “sweet water consumption (index of motivational behavior and reduced anhedonia)” value is listed as “triggers an increase”; the weight loss entry is on record as “reduces”. For the same compound, in data set [3], the “reduction in spontaneous motility” value was “prevents” and the weight loss result is “prevents”. Moreover, in [4], the food aversion/anorexia result is listed as “in part” and the weight loss result is recorded as “completely prevents”. In data set [5], the “decrease of food consumption/anorexia” value was “reduces” and the weight loss entry is “reduces”. Besides, in data set [6], the “decrease of food consumption/anorexia” value is “reduces” and the weight loss result is on record as “reduces”. Also, in data set [7], the “decrease of sweet water consumption” value is listed as “reduces”, the “spontaneous motility (parameter of malaise)” value is recorded as “reduces” and the weight loss entry was “reduces”. Further, in data set [8], the food aversion/anorexia entry is reported as “reduces”, the spontaneous motility result is “increases” and the weight loss result is given as “reduces”. Also, in [9], the body weight loss result is “reduces”, the food aversion/anorexia result was “reduces” and the weight body recovery entry is “accelerates”. Also, the hepatotoxicity entry in [10] was “non-hepatotoxic”.

Turning to `C[C@@H]1[C@H](c2c(F)ccc(F)c2F)C[C@H](NC(=O)c2cnc3c(c2)C[C@@]2(C3)C(=O)Nc3ncccc32)C(=O)N1CC(F)(F)F` [atogepant], in data set [1], the “loss of muscle mass” value is “counteracting”, the “reduction of food consumption/anorexia” value was “counteracting” and the weight loss entry is “reducing”. Moreover, in [2], the “sweet water consumption (index of motivational behavior and reduced anhedonia)” value is “triggers an increase”; the weight loss entry is reported as “reduces”. Besides, in data set [3], the “reduction in spontaneous motility” value is recorded as “prevents” and the weight loss entry was “prevents”. For the same compound, in [4], the food aversion/anorexia entry is recorded as “in part” and the weight loss entry is listed as “completely prevents”. Moreover, in data set [5], the “decrease of food consumption/anorexia” value is “reduces” and the weight loss entry was “reduces”. In addition, in data set [6], the “decrease of food consumption/anorexia” value is given as “reduces” and the weight loss result is listed as “reduces”. In data set [7], the “decrease of sweet water consumption” value was “reduces”, the “spontaneous motility (parameter of malaise)” value is reported as “reduces” and the weight loss result is recorded as “reduces”. Further, in [8], the food aversion/anorexia result was “reduces”, the spontaneous motility entry is “increases” and the weight loss entry was “reduces”. Moreover, in [9], the body weight loss entry is “reduces”, the food aversion/anorexia result is recorded as “reduces” and the weight body recovery entry is “accelerates”. Moreover, the hepatotoxicity entry in data set [10] is recorded as “non-hepatotoxic”.
